Source: the supplement of paper PMC10307832

What was measured:
Assay in all cases: relative viability (nuclei count vs DMSO), 5 days (fraction); higher = more cells survive
BEN = tested on: BEN
How it was run: (§1)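 The day after seeding in 1536-well plates, lung cancer cell lines were treated by pin tool with a single drug, or with a fixed anchor-drug dose together with five library-drug doses (not always all listed) in √10 steps. After 5 days, a combined fix-and-stain solution (final 0.05% Triton X-100, 1% formaldehyde, 1 ug/ml Hoechst) was added. Nuclei counted on 4× images gave relative viability as treated counts over vehicle counts, reported as the median of duplicate plates.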

NCI-H441 = tested on: NCI-H441
How it was run: as §1

NCI-H23 = tested on: NCI-H23
How it was run: as §1

NCI-H727 = tested on: NCI-H727
How it was run: as §1

NCI-H2087 = tested on: NCI-H2087
How it was run: as §1

NCI-H2023 = tested on: NCI-H2023
How it was run: as §1

NCI-H2347 = tested on: NCI-H2347
How it was run: as §1

LOU-NH91 = tested on: LOU-NH91
How it was run: as §1

NCI-H1993 = tested on: NCI-H1993
How it was run: as §1

EMC-BAC-2 = tested on: EMC-BAC-2
How it was run: as §1

HARA = tested on: HARA
How it was run: as §1

HCC-44 = tested on: HCC-44
How it was run: as §1

NCI-H522 = tested on: NCI-H522
How it was run: as §1

NCI-H838 = tested on: NCI-H838
How it was run: as §1

NCI-H647 = tested on: NCI-H647
How it was run: as §1

NCI-H3122 = tested on: NCI-H3122
How it was run: as §1

NCI-H650 = tested on: NCI-H650
How it was run: as §1

NCI-H1395 = tested on: NCI-H1395
How it was run: as §1

NCI-H596 = tested on: NCI-H596
How it was run: as §1

NCI-H2126 = tested on: NCI-H2126
How it was run: as §1

201T = tested on: 201T
How it was run: as §1

LCLC-103H = tested on: LCLC-103H
How it was run: as §1

Q: What does the source list for CCN(CC)CCCCNc1ncc2cc(-c3cc(OC)cc(OC)c3)c(NC(=O)NC(C)(C)C)nc2n1 + COc1cccc2cc(-c3nc([C@H]4CC[C@H](C(=O)O)CC4)n4ncnc(N)c34)[nH]c12 [OSI-027] (partner 0.5 µM)?
A: relative viability (BEN; first compound 0.01 µM): 0.242; relative viability (BEN; first compound 0.03162 µM): 0.285; relative viability (BEN; first compound 0.1 µM): 0.347; relative viability (BEN; first compound 0.3162 µM): 0.311; relative viability (BEN; first compound 1 µM): 0.282; relative viability (NCI-H441; first compound 0.01 µM): 0.56; relative viability (NCI-H441; first compound 0.03162 µM): 0.669; relative viability (NCI-H441; first compound 0.1 µM): 0.638; relative viability (NCI-H441; first compound 0.3162 µM): 0.689; relative viability (NCI-H441; first compound 1 µM): 0.623; relative viability (NCI-H23; first compound 0.01 µM): 0.566; relative viability (NCI-H23; first compound 0.03162 µM): 0.679; relative viability (NCI-H23; first compound 0.1 µM): 0.738; relative viability (NCI-H23; first compound 0.3162 µM): 0.731; relative viability (NCI-H23; first compound 1 µM): 0.623; relative viability (NCI-H727; first compound 0.01 µM): 0.673; relative viability (NCI-H727; first compound 0.03162 µM): 0.591; relative viability (NCI-H727; first compound 0.1 µM): 0.623; relative viability (NCI-H727; first compound 0.3162 µM): 0.842; relative viability (NCI-H727; first compound 1 µM): 0.498; relative viability (NCI-H2087; first compound 0.01 µM): 0.618; relative viability (NCI-H2087; first compound 0.03162 µM): 0.5; relative viability (NCI-H2087; first compound 0.1 µM): 0.733; relative viability (NCI-H2087; first compound 0.3162 µM): 0.636; relative viability (NCI-H2087; first compound 1 µM): 0.6; relative viability (NCI-H2023; first compound 0.01 µM): 0.426; relative viability (NCI-H2023; first compound 0.03162 µM): 0.452; relative viability (NCI-H2023; first compound 0.1 µM): 0.518; relative viability (NCI-H2023; first compound 0.3162 µM): 0.486; relative viability (NCI-H2023; first compound 1 µM): 0.359; relative viability (NCI-H2347; first compound 0.01 µM): 0.419; relative viability (NCI-H2347; first compound 0.03162 µM): 0.38; relative viability (NCI-H2347; first compound 0.1 µM): 0.408; relative viability (NCI-H2347; first compound 0.3162 µM): 0.381; relative viability (NCI-H2347; first compound 1 µM): 0.358; relative viability (LOU-NH91; first compound 0.01 µM): 0.672; relative viability (LOU-NH91; first compound 0.03162 µM): 0.741; relative viability (LOU-NH91; first compound 0.1 µM): 0.776; relative viability (LOU-NH91; first compound 0.3162 µM): 0.776; relative viability (LOU-NH91; first compound 1 µM): 0.696; relative viability (NCI-H1993; first compound 0.01 µM): 0.259; relative viability (NCI-H1993; first compound 0.03162 µM): 0.559; relative viability (NCI-H1993; first compound 0.1 µM): 0.532; relative viability (NCI-H1993; first compound 0.3162 µM): 0.604; relative viability (NCI-H1993; first compound 1 µM): 0.535; relative viability (EMC-BAC-2; first compound 0.01 µM): 0.38; relative viability (EMC-BAC-2; first compound 0.03162 µM): 0.399; relative viability (EMC-BAC-2; first compound 0.1 µM): 0.398; relative viability (EMC-BAC-2; first compound 0.3162 µM): 0.471; relative viability (EMC-BAC-2; first compound 1 µM): 0.358; relative viability (HARA; first compound 0.01 µM): 0.522; relative viability (HARA; first compound 0.03162 µM): 0.647; relative viability (HARA; first compound 0.1 µM): 0.429; relative viability (HARA; first compound 0.3162 µM): 0.697; relative viability (HARA; first compound 1 µM): 0.446; relative viability (HCC-44; first compound 0.01 µM): 0.436; relative viability (HCC-44; first compound 0.03162 µM): 0.587; relative viability (HCC-44; first compound 0.1 µM): 0.573; relative viability (HCC-44; first compound 0.3162 µM): 0.519; relative viability (HCC-44; first compound 1 µM): 0.479; relative viability (NCI-H522; first compound 0.01 µM): 0.639; relative viability (NCI-H522; first compound 0.03162 µM): 0.625; relative viability (NCI-H522; first compound 0.1 µM): 0.676; relative viability (NCI-H522; first compound 0.3162 µM): 0.674; relative viability (NCI-H522; first compound 1 µM): 0.698; relative viability (NCI-H838; first compound 0.01 µM): 0.373; relative viability (NCI-H838; first compound 0.03162 µM): 0.39; relative viability (NCI-H838; first compound 0.1 µM): 0.449; relative viability (NCI-H838; first compound 0.3162 µM): 0.377; relative viability (NCI-H838; first compound 1 µM): 0.273; relative viability (NCI-H647; first compound 0.01 µM): 0.539; relative viability (NCI-H647; first compound 0.03162 µM): 0.8; relative viability (NCI-H647; first compound 0.1 µM): 0.848; relative viability (NCI-H647; first compound 0.3162 µM): 0.861; relative viability (NCI-H647; first compound 1 µM): 0.56; relative viability (NCI-H3122; first compound 0.01 µM): 1.06; relative viability (NCI-H3122; first compound 0.03162 µM): 1.02; relative viability (NCI-H3122; first compound 0.1 µM): 1.15; relative viability (NCI-H3122; first compound 0.3162 µM): 1.3; relative viability (NCI-H3122; first compound 1 µM): 0.922; relative viability (NCI-H650; first compound 0.01 µM): 0.46; relative viability (NCI-H650; first compound 0.03162 µM): 0.551; relative viability (NCI-H650; first compound 0.1 µM): 0.589; relative viability (NCI-H650; first compound 0.3162 µM): 0.605; relative viability (NCI-H650; first compound 1 µM): 0.507; relative viability (NCI-H1395; first compound 0.01 µM): 0.578; relative viability (NCI-H1395; first compound 0.03162 µM): 0.697; relative viability (NCI-H1395; first compound 0.1 µM): 0.745; relative viability (NCI-H1395; first compound 0.3162 µM): 0.554; relative viability (NCI-H1395; first compound 1 µM): 0.458; relative viability (NCI-H596; first compound 0.01 µM): 0.63; relative viability (NCI-H596; first compound 0.03162 µM): 0.74; relative viability (NCI-H596; first compound 0.1 µM): 0.758; relative viability (NCI-H596; first compound 0.3162 µM): 0.709; relative viability (NCI-H596; first compound 1 µM): 0.528; relative viability (NCI-H2126; first compound 0.01 µM): 0.583; relative viability (NCI-H2126; first compound 0.03162 µM): 0.768; relative viability (NCI-H2126; first compound 0.1 µM): 0.704; relative viability (NCI-H2126; first compound 0.3162 µM): 0.756; relative viability (NCI-H2126; first compound 1 µM): 0.707; relative viability (201T; first compound 0.01 µM): 0.615; relative viability (201T; first compound 0.03162 µM): 0.658; relative viability (201T; first compound 0.1 µM): 0.927; relative viability (201T; first compound 0.3162 µM): 0.798; relative viability (201T; first compound 1 µM): 0.607; relative viability (LCLC-103H; first compound 0.01 µM): 0.455; relative viability (LCLC-103H; first compound 0.03162 µM): 0.482; relative viability (LCLC-103H; first compound 0.1 µM): 0.456; relative viability (LCLC-103H; first compound 0.3162 µM): 0.386; relative viability (LCLC-103H; first compound 1 µM): 0.339
